Laboratory results reported in US8999404B2, “Phaleria macrocarpa extract, extraction process and its use as cholesteryl ester transferase protein (CETP) inhibitor” (Pt. Dexa Medica, priority 2011, dated 2015).
“Also recorded” adds a separate entry of the source.

Columns and labels:
[1] = test system: CETP gene expression; test: Combination effect of double unsaturated fatty acid and DLBS1449 on CETP gene expression; type: cell-based, human; conditions: HepG2, 30 μM fatty acid alone, 24 hours, FIG. 8
Description: HepG2 cells were cultured at 6-well plate until 60% of cell density was reached. Change of medium was then performed, using serum-free medium and incubated for 24 hours. Those cells were then treated with 4 different treatments which were 30 μM of arachidonic acid, 30 μM of linoleic acid, combination of arachidonic acid with 75 μg/ml of DLBS1449 and combination of linoleic acid with 75 μg/ml of DLBS1449. These treatments were performed for 24 hours. Total RNA of HepG2 cells treated with DLBS1449 were isolated using Trizol solution according to the procedure available from the solution. Total RNA were then measured using NanoDrop machine and visualized using electrophoresis method. Further, RNA with good quality will be used to synthesize cDNA through RT-PCR process using PCR Thermocycler machine in a certain condition that has been optimized.

[2] = clinical trials, patients consuming the drug; cited from earlier work

SMILES	CETP gene expression [1]	patients' blood pressure [2]
CCCCC/C=C\C/C=C\C/C=C\C/C=C\CCCC(=O)O [arachidonic acid]	decrease the CETP gene expression	–
CCCCC/C=C\C/C=C\CCCCCCCC(=O)O [linoleic acid]	greater decrease	–
CCOC(=O)N1c2ccc(C(F)(F)F)cc2[C@@H](N(Cc2cc(C(F)(F)F)cc(C(F)(F)F)c2)C(=O)OC)C[C@H]1CC [torcetrapib]	–	increase of blood pressure; also recorded: increase in patients' blood pressure
